# Assay results from patent publication US11267809B2, “BAF complex modulating compounds and methods of using the same” (THE BOARD OF TRUSTEES OF THE LELAND STANFORD JUNIOR …, priority 2017, dated 2022).
# Tests used:
# mESCs = assay: Toxicity in mouse embryonic stem cells (cell cycle arrest); assay type: cell-based
# Method: From our initial Bmi1 screen, we chose 8 representative compounds to compare to the lead candidate which were either commercially available, or comprised of the same oxadiazacyclodecone 12-member macrocyclic stereoisomer backbone as Baficillin1. […] To examine a structure-activity-relationship of the compounds, HCT116 cells were then treated with increasing doses of VE-821 (1 uM-30 uM) and increasing doses of the putative inhibitors (1 uM-30 uM), both independently and with all possible combinations followed by quantification of synergy (FIG. 4c-h).
# FIG. 4: Structure Activity Relationship of Putative BAF Inhibitors. […]
# For hour-by-hour analysis, cells were collected, rinsed with PBS, and vortexed while adding 1mL ice cold 70% ethanol. […] Individual cells were gated based on forward and side scatter, auto fluorescent cells were omitted, and remaining cells were then analyzed for propidium iodide levels. To determine the percent of cells in each phase, DNA content histograms histograms were analyzed using R-package “mixtools” EM algorithm for mixtures of univariate normals. The areas of each mixed normal distribution were calculated to represent the total number of cells in each phase of the cell cycle. […] ESCs were incubated with BrdU for 1 h and the percent of cells in G2/M, stained with 7-AAD and analyzed on a BD FACScan.
# Bmi1 expression = assay: Screen for increased expression of Bmi1 (BAF target) in mESCs; assay type: cell-based, mouse; settings: mESC screen
# Excerpt: This synthetic lethal interaction has been attributed to the increased dependency of ARID1A-deficient cells on the ATR-mediated G2/M decatenation checkpoint following loss of ARID1A-mediated interactions of the BAF complex with TOP2A^7,27. Utilizing the knowledge that one of the BAF complex's diverse and essential functions involves repression of specific genes in embryonic stem cells^28, we developed a screening strategy to identify compounds that upregulate target genes repressed by the embryonic BAF complex (esBAF) in mESCs including Bmil, Ringl, and Fgf4 (FIG. 1b)^16,29. Given that the loss of ARID1A (a functionally critical, mechanistically elusive, and frequently mutated subunit of the BAF complex) sensitizes cancer cells to inhibition of the ATR kinase, we sought to identify whether our putative esBAF inhibitors (FIG. 1c) might phenocopy the loss of ARID1A in cancer cells and thereby synergize with ATR inhibitors.
# We recently completed a large-scale screen to identify small molecules that result in increased expression of Bmi1, a known genetic target of BAF whose expression is increased about 6- to 12-fold upon deletion of the SMARCA4 ATPase subunit of the BAF complex^29. […]
# [1] = test system: HCT116 cells infected with shRNA lentivirus targeting ARID2; assay: Synergy viability assay, HCT116 with shARID2 knockdown; assay type: cell-based, human; settings: with VE-821, 5 days
# Excerpt: SMARCA4, the primary target of our original screen, is present in both human BAF and PBAF complexes in cancer^12. PBAF complexes differ from BAF complexes by incorporation of specific subunits. Specifically, PBAF complexes contain ARID2 (as opposed to ARID1A/B), PHF10 (BAF45a) (as opposed to […] (BAF45d)), PBRM1, and lack the BAF-specific subunit SS18. PBAF specific subunits are also frequently mutated in cancer, specifically renal clear cell carcinomas and cholangiocarcinomas^33-36. To assess whether the lead compound is targeting BAF, PBAF complexes, or both, we constitutively knocked down ARID1A or ARID2 by lentiviral transduction of HCT116 cells and compared the BAFi/ATRi synergy to the wild-type (ARID1A+/+). […] Further, upon knockdown of ARID1A or ARID2 (FIG. 3b), the synergistic effect observed between Baficillin1 and VE-821 was ablated upon loss of ARID1A (FIG. 3e) (CIshARID1A=1.48±0.14), but not loss of shARID2 (CIshARID2=0.42±0.04) (FIG. 3c-e).
# Viability assays were performed in 384-well plates. Cells were plated at 500 cells/well. Each drug was administered in 5-doses with 4 replicates per plate, and each 5×5 drug combination was administered with 8 replicates per plate, 24 hours after seeding. […] After 5 days, cellular viability was measured using CellTitre blue, as described by the manufacturer. […]
compound,measurement,setting,value
CO[C@H]1CN(C)C(=O)c2cc(NC(=O)NC(C)C)ccc2OC[C@H](C)N(Cc2ccc(-c3ccccn3)cc2)C[C@@H]1C [Baficillin1],toxicity in mESCs,mESCs,largely non-toxic
same,activation of Bmi1 and other BAF targets,Bmi1 expression,robust activation
same,combination index (CI shARID2),[1],0.42±0.04
